Measured values published in BindingDB's records for patent US20230312583 (Shengke Pharmaceuticals (Jiangsu), 2023).

Target: Mast/stem cell growth factor receptor Kit (Homo sapiens, UniProt P10721)
Test: Biological Assay
Description: Reactions were carried out in the presence of 10 μM ATP. […] The radioactive phosphorylated substrate remaining on the filter paper was measured.

Chain of Mast/stem cell growth factor receptor Kit (P10721 whole entry): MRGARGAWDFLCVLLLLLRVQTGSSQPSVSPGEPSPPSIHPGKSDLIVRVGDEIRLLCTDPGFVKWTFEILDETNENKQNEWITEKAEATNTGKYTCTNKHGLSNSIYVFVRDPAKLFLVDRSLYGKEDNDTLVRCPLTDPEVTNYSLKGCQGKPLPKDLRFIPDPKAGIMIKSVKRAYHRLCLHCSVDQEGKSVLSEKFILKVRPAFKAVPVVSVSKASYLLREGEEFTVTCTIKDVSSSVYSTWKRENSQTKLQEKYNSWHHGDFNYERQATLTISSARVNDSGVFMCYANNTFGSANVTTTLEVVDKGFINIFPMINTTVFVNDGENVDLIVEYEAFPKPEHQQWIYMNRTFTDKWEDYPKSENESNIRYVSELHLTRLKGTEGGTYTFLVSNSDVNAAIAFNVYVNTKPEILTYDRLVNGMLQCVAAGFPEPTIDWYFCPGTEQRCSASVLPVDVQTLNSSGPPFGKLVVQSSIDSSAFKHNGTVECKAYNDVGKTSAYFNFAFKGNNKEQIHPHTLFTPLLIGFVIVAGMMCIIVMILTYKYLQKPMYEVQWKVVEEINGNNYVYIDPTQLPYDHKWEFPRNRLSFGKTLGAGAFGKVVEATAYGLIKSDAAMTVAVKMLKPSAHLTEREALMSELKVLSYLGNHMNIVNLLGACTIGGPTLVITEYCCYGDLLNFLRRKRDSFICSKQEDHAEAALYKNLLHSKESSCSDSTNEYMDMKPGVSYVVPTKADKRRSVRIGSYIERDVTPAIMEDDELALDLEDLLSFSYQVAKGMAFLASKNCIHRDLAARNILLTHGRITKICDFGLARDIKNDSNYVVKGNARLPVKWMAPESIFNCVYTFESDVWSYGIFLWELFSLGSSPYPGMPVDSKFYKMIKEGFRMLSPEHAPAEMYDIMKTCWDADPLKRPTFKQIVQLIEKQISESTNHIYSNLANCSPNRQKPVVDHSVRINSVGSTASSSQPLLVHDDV

Compound: CC#CCOc1cc(Nc2ncc3ccc4ncn(C(C)C)c4c3n2)ncc1N1CCNCC1 [US20230312583, Compound I-13]
- IC50: 93.2 nM
